From ChEMBL document CHEMBL1201862, “PubChem BioAssay data set” (2004)
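Briefly, cells in 96-well plates were exposed to five compound concentrations for 48 h, and endpoints were estimated by linear interpolation. Abbreviation: GI50, concentration required for 50% inhibition of growth.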 Active and inactive are the calls of the source. Rule as the data show it: active = GI50 up to about 1.1 µM and inactive = higher.

Experiments:
Test in all cases: NCI anticancer screen, dose series, 48 h
SF-539 = system: SF-539
UO-31 = system: UO-31
MCF7 = system: MCF7
HOP-92 = system: HOP-92
SK-MEL-28 = system: SK-MEL-28
COLO 205 = system: COLO 205
NCI/ADR-RES = system: NCI/ADR-RES
HCC 2998 = system: HCC 2998
CCRF-CEM = system: CCRF-CEM
NCI-H226 = system: NCI-H226
A498 = system: A498
M14 = system: M14
SNB-75 = system: SNB-75
786-0 = system: 786-0
MOLT-4 = system: MOLT-4
NCI-H23 = system: NCI-H23
IGROV-1 = system: IGROV-1
DU-145 = system: DU-145
LOX IMVI = system: LOX IMVI

| Structure (SMILES) | GI50 (SF-539) | GI50 (UO-31) | GI50 (MCF7) | GI50 (HOP-92) | GI50 (SK-MEL-28) | GI50 (COLO 205) | GI50 (NCI/ADR-RES) | GI50 (HCC 2998) | GI50 (CCRF-CEM) | GI50 (NCI-H226) | GI50 (A498) | GI50 (M14) | GI50 (SNB-75) | GI50 (786-0) | GI50 (MOLT-4) | GI50 (NCI-H23) | GI50 (IGROV-1) | GI50 (DU-145) | GI50 (LOX IMVI) |
| --- | --- | --- | --- | --- | --- | --- | --- | --- | --- | --- | --- | --- | --- | --- | --- | --- | --- | --- | --- |
| Cc1ccccc1NC(=O)O/N=C(\Cl)C(C)C | 9.08 µM (inactive) | 17.4 µM (inactive) | 7.98 µM (inactive) | 2.28 µM (inactive) | 2.4 µM (inactive) | 1.75 µM (inactive) | 16.5 µM (inactive) | 17.3 µM (inactive) | 1.48 µM (inactive) | 16 µM (inactive) | 17.9 µM (inactive) | 3.22 µM (inactive) | 17.1 µM (inactive) | 1.81 µM (inactive) | 2.74 µM (inactive) | 16.7 µM (inactive) | 9.42 µM (inactive) | 17.2 µM (inactive) | 1.55 µM (inactive) |
| O=C1c2c(Br)sc(Br)c2[C@@H](NC(=O)C(F)(F)F)C1Br (some centres not stated) | 2.73 µM (inactive) | 5.92 µM (inactive) | 5.71 µM (inactive) | 2.3 µM (inactive) | 3.05 µM (inactive) | 2.01 µM (inactive) | 3.32 µM (inactive) | 3.1 µM (inactive) | 1.88 µM (inactive) | 5.53 µM (inactive) | 15.3 µM (inactive) | 2.34 µM (inactive) | 4.92 µM (inactive) | 2.13 µM (inactive) | 2.2 µM (inactive) | 2.53 µM (inactive) | 2.92 µM (inactive) | 6.71 µM (inactive) | 1.57 µM (inactive) |
| COc1cc2c(cc1OC)OC(c1c(OC)ccc(OC)c1O)CC2 (configuration not stated) | 73.6 µM (inactive) | > 100 µM (inactive) | 78.2 µM (inactive) | > 100 µM (inactive) | > 100 µM (inactive) | 91.4 µM (inactive) | > 100 µM (inactive) | > 100 µM (inactive) | 22.9 µM (inactive) | > 100 µM (inactive) | > 100 µM (inactive) | > 100 µM (inactive) | > 100 µM (inactive) | > 100 µM (inactive) | 71.9 µM (inactive) | > 100 µM (inactive) | > 100 µM (inactive) | > 100 µM (inactive) | > 100 µM (inactive) |
| Cc1nc2c(cc1OCc1ccccc1)C(=O)C1=C(C2=O)C2OC(=O)CC2OC1(C)C (configuration not stated) | 0.728 µM (active) | 1.68 µM (inactive) | 0.173 µM (active) | 0.375 µM (active) | 0.33 µM (active) | 0.326 µM (active) | 3.14 µM (inactive) | 0.579 µM (active) | 0.17 µM (active) | 1.09 µM (active) | 1.6 µM (inactive) | 0.536 µM (active) | 1.66 µM (inactive) | 0.3 µM (active) | 0.358 µM (active) | 0.944 µM (active) | 0.312 µM (active) | 1.71 µM (inactive) | 0.215 µM (active) |
| CNc1cc2oc(=O)cc(C)c2cc1C | > 100 µM (inactive) |  | 96.8 µM (inactive) | 89.3 µM (inactive) | > 100 µM (inactive) | > 100 µM (inactive) | > 100 µM (inactive) | > 100 µM (inactive) | > 100 µM (inactive) | > 100 µM (inactive) | 43.2 µM (inactive) | > 100 µM (inactive) | 85.3 µM (inactive) | > 100 µM (inactive) | > 100 µM (inactive) | > 100 µM (inactive) | > 100 µM (inactive) | > 100 µM (inactive) | > 100 µM (inactive) |
| O=C1CSC(c2ccccc2O)N1c1nc2cc3sc(N4C(=O)CSC4c4ccccc4O)nc3cc2s1 (configuration not stated) | 59.6 µM (inactive) | 23.3 µM (inactive) | 11.5 µM (inactive) | > 42.5 µM (inactive) | > 79.1 µM (inactive) | 3.61 µM (inactive) | 8.47 µM (inactive) | > 100 µM (inactive) | 3.93 µM (inactive) | 21 µM (inactive) | > 42.9 µM (inactive) | > 69.5 µM (inactive) | 99.8 µM (inactive) | > 100 µM (inactive) | 4.06 µM (inactive) | 9.57 µM (inactive) | 18.9 µM (inactive) | 34.7 µM (inactive) | 24 µM (inactive) |
| CCCCCCCCCCCCc1ccc(S(=O)(=O)O)cc1 | > 100 µM (inactive) | > 100 µM (inactive) | 98.9 µM (inactive) | 88.1 µM (inactive) | > 100 µM (inactive) | > 100 µM (inactive) | > 100 µM (inactive) | > 100 µM (inactive) | > 100 µM (inactive) | 90.6 µM (inactive) | 26.8 µM (inactive) | > 100 µM (inactive) | > 100 µM (inactive) | > 100 µM (inactive) | > 100 µM (inactive) | > 100 µM (inactive) | 11.5 µM (inactive) | > 100 µM (inactive) | 49.5 µM (inactive) |
